“And” between values parts separate entries of the source, which are not always exact repeats. Equal values may be shown once.
Columns and labels:
p-AKT Ser473 [1] = assay: Flow cytometry, TPO-activated AKT phosphorylation in CD34+ progenitor cells from MF patients; assay type: cell-based, human; conditions: for p-AKT (table title: percentage of Annexin-V positive cells): cells from Compound A-treated MF patients; for normalized percentage of TPO-activated AKT phosphorylation (p-AKT): TPO-treated vehicle=100
Experimental: (§1) PBMCs were isolated from whole blood of myelofibrosis (MF) patients who had not received treatments (i.e. naïve patients) or received ruxolitinib (i.e. rux-treated patients). The cells were treated with 0.02, 0.2, or 2.0 μM of Compound B or vehicle (0.1% DMSO in 0.1% FBS/RPMI) for 2 hours at 37° C. The cells were then fixed, permeabilized, and stained for FACS analysis. Antibodies specific to p-AKT Ser473 and pS6RP Ser235/236 were used to detect AKT phosphorylation (p-AKT) and S6RP phosphorylation (p-S6RP) in CD34^+/CD3^−/CD14^−/CD19/CD66^− (BD Biosciences) gated cells using flow cytometry. The percentage of basal (i.e. untreated with TPO) AKT and S6RP phosphorylation were normalized to vehicle control. A two-tailed paired t-test (GraphPad Prism) was used to calculate p-values. Values of p<0.05 were considered significant.
(§2) Also, PBMC cells from naïve or ruxolitinib treated patients were isolated and treated with Compound B and with TPO as described above. The percentage of TPO-activated AKT and S6RP phosphorylation were normalized to those of TPO-treated vehicle (“no TPO” values in Table 4). […] Also, the inhibition to PI3K signaling was dose-dependent to Compound B.
(§3) Similar studies were conducted with PI3K inhibitors Compounds C and D. PBMC from MF patients had received ruxolitinib (rux) and MF patient had received Compound A. The cells were treated with Compounds C or D at 0, 20.0, 200.0, 2000.0 nM for 2 hours at 37° C. Cells were treated with TPO for 10 minutes. The percentage of basal p-AKT and p-S6RP levels were normalized to vehicle control and those of TPO-treated were normalized to TPO-treated vehicle control. The PI3Kδ inhibitors Compound C is referred by the chemical names of (S)-2-(1-((9H-purin-6-yl)amino)ethyl)-6-fluoro-3-phenylquinazolin-4(3H)-one.

pS6RP Ser235/236 = assay: Flow cytometry, TPO-activated S6RP phosphorylation in CD34+ progenitor cells from MF patients; assay type: cell-based, human; conditions: for p-S6RP (table title: percentage of Annexin-V positive cells): cells from Compound A-treated MF patients; for normalized percentage of TPO-activated S6RP phosphorylation (p-S6RP): TPO-treated vehicle=100
Experimental: as §1, §2, §3

autologous B cells = assay: Whole blood (WB) autologous B-cell depletion assay; assay type: cell-based
Experimental: Further, whole blood (WB) autologous B-cell depletion and cell-death induction assays were conducted as described in Mossner et al., Blood 115:4393-402, 2010. For cell death assay: Ri-1 DLBCL cells were seeded at 15,000 cells/well in 96-well plates. Cells were preincubated with Compound B or DMSO for 1 hour before the addition of antibody. Plates were incubated at 37° C. in a humidified CO2 chamber for 3 days. Cells were washed once with PBS and treated with Accutase for 15 minutes before being stained with Guava Nexin® reagent and analyzed on the Guava EasyCyte flow cytometer (Merck Millipore).
The percentage of deplete autologous B cells in a whole blood assay may represent the antibody potency.

p-AKT Ser473 [2] = assay: Flow cytometry, basal AKT phosphorylation in CD34+ progenitor cells from MF patients; assay type: cell-based, human; conditions: one line per patient, vehicle=100
Experimental: as §1, §3

[3] = system: NK-cell expression of CD107a and CD16; assay: Antibody potency and NK-cell expression of CD107a and CD16; assay type: cell-based; conditions: data not shown
[4] = 0.02 μM, rux-treated MF patients
[5] = 0.2 μM, rux-treated MF patients

CC[C@H](Nc1ncnc2[nH]cnc12)c1nc2cccc(F)c2c(=O)n1-c1ccccc1 [Compound B, (S)-2-(1-((9H-purin-6-yl)amino)propyl)-5-fluoro-3-phenylquinazolin-4(3H)-one]
p-AKT (table title: percentage of Annexin-V positive cells) (p-AKT Ser473 [1]; 0.02 μM, column 0 = 100): 56% and 74% and 51% | normalized percentage of TPO-activated AKT phosphorylation (p-AKT) (p-AKT Ser473 [1]; 0.02 μM, naïve MF patients, one line per patient): 43% and 60% and 58% | normalized percentage of TPO-activated AKT phosphorylation (p-AKT) (p-AKT Ser473 [1]; [4]): 59% and 60% and 78% and 55% and 57% | p-AKT (table title: percentage of Annexin-V positive cells) (p-AKT Ser473 [1]; 0.2 μM): 49% and 71% and 51% | normalized percentage of TPO-activated AKT phosphorylation (p-AKT) (p-AKT Ser473 [1]; 0.2 μM, naïve MF patients): 30% and 32% and 41% | normalized percentage of TPO-activated AKT phosphorylation (p-AKT) (p-AKT Ser473 [1]; [5]): 39% and 52% and 55% and 57% and 36% and 33% | normalized percentage of TPO-activated AKT phosphorylation (p-AKT) (p-AKT Ser473 [1]; 2.0 μM, naïve MF patients): 28% and 32% and 27% | p-S6RP (table title: percentage of Annexin-V positive cells) (pS6RP Ser235/236; 0.02 μM): 61% and 69% and 64% | normalized percentage of TPO-activated S6RP phosphorylation (p-S6RP) (pS6RP Ser235/236; 0.02 μM, naïve MF patients): 57% and 50% and 86% | normalized percentage of TPO-activated S6RP phosphorylation (p-S6RP) (pS6RP Ser235/236; [4]): 55% and 79% and 60% and 59% and 53% and 62% | p-S6RP (table title: percentage of Annexin-V positive cells) (pS6RP Ser235/236; 0.2 μM): 52% and 54% and 42% | normalized percentage of TPO-activated S6RP phosphorylation (p-S6RP) (pS6RP Ser235/236; 0.2 μM, naïve MF patients): 48% and 42% and 69% | normalized percentage of TPO-activated S6RP phosphorylation (p-S6RP) (pS6RP Ser235/236; [5]): 35% and 56% and 55% and 50% and 32% and 44% | p-S6RP (table title: percentage of Annexin-V positive cells) (pS6RP Ser235/236; 2.0 μM): 30% and 34% and 25% | Percentage of B-cell depletion WB (autologous B cells; Compound B alone 100 nM): 5% and −1% and −3% | Percentage of B-cell depletion WB (autologous B cells; Compound B alone 760 nM): −1% and −4% | Percentage of B-cell depletion WB (autologous B cells; Compound B alone 4200 nM): 0% and 1% and 5% | normalized percentage of basal AKT phosphorylation (p-AKT) (p-AKT Ser473 [2]; 0.02 μM 2 h, naïve MF patients): 99% and 102% and 83% and 88% and 84% | normalized percentage of basal AKT phosphorylation (p-AKT) (p-AKT Ser473 [2]; 0.02 μM 2 h, rux-treated MF patients): 88% and 89% (2×) and 91% and 57% and 96% and 100% | normalized percentage of basal AKT phosphorylation (p-AKT) (p-AKT Ser473 [2]; 0.2 μM 2 h, naïve MF patients): 64% and 127% and 75% and 76% and 81% and 72% | normalized percentage of basal AKT phosphorylation (p-AKT) (p-AKT Ser473 [2]; 0.2 μM 2 h, rux-treated MF patients): 85% and 78% and 81% and 82% (2×) and 52% and 87% | normalized percentage of basal AKT phosphorylation (p-AKT) (p-AKT Ser473 [2]; 2 μM 2 h, naïve MF patients): 55% and 96% and 66% (2×) and 70% and 47% | normalized percentage of basal AKT phosphorylation (p-AKT) (p-AKT Ser473 [2]; 2 μM 2 h, rux-treated MF patients): 69% and 77% and 83% and 84% and 43% and 98% and 79% | reduction of the potency of both anti-CD20 antibodies ([3]; Compound B 256 nM with obinutuzumab or rituximab 0.01-1000 ng/mL): 0 to 15% | NK-cell degranulation, surface expression of CD107a ([3]; in 2 of 3 samples): inhibited NK-cell degranulation

From US20160331754A1, “THERAPIES FOR TREATING CANCERS” (GILEAD SCIENCES, INC., priority 2014, published 2016)
